{"source": "patent US10738049B2", "about": "“N-{3-[3-cyclopropyl-5-(2-fluoro-4-iodophenylamino)-6,8-dimethyl-2,4,7-trioxo-3,4,6,7-tetrahydro-2H-pyrido[4,3-D]pyrimidin-1-YL]-phenyl}-cyclopropanecarboxamide dimethyl sulfoxide solvate as an MEK1/2 inhibitor” (R-PHARM JOINT STOCK COMPANY (R-PHARM, JSC), priority 2016, dated 2020)", "key": {"[1]": {"test": "Body weight and deaths during treatment in the xenograft study", "method": "The animals were treated with the test products for 21 days.\nWhen average tumor size reached 100-200 mM^3 the animals were subdivided into experimental groups and treatment with the test drugs was started. The products were administered intragastrically daily, while the control group received the solvent.\nAlso, health and behavior of animals were monitored, numbers of lethal outcomes and tumor regressions were recorded: Regression=(Vini−Vfin)/Vi×100%,\nMeasurement of animal weights was carried out 3 times a week."}, "MEK1": {"target": "T1, MEK1 (Homo sapiens, UniProt Q02750)", "T1 construct": "purchased Life Technologies", "T1 sequence (Q02750 whole entry)": "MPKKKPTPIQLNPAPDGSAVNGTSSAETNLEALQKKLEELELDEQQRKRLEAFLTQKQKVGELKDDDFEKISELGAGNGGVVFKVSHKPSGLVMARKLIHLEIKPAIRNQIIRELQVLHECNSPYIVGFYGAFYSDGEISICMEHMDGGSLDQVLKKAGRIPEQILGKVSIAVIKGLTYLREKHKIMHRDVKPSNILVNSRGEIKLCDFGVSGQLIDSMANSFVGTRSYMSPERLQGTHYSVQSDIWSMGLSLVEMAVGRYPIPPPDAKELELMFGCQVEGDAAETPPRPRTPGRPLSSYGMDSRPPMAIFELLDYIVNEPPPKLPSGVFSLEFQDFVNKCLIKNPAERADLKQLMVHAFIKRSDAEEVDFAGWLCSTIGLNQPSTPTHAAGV", "test": "MEK1 kinase activity, Z'-LYTE screening platform", "type": "biochemical", "conditions": "100 μM ATP, 1% DMSO", "method": "Assay. The substances were tested for the effect on MEK1 kinase activity using Z′-LYTE screening platform (Life Technologies). Concentration of DMSO in the reaction mixture was 1%. Dilute 100 nL of 100-fold sinks of the substances under study in 100% DMSO in 2.4 μL of kinase buffer (50 mM of HEPES pH 7.5, 0.01% BRIJ-35, 10 mM of mgCl2, 1 mM of EGTA) and add to 5 μL of 2-fold Substrate/Kinase mixture (MEK1/inactivated MARK1 (ERK2)/Ser/Thr03, final content 0.08-0.31 ng of MEK1, 105 ng of inactivated MARK1 (ERK2), and 2 μM of Ser/Thr03) in 384-well plate (black, small-volume manufactured by Corning, κaT. #3676). Pre-incubate the substances with kinases for 10 min at ambient temperature. After that add 2.5 μL of 4-fold ATP solution to start the reaction (final concentration of ATP in the reaction mixture is 100 μM). After 30 sec of incubation on a shaker incubate the reaction for 60 min at ambient temperature. Then add 5 μL of Reagent B (Life Technologies) diluted as 1:1024 and incubate for 60 min more at ambient temperature. Measure fluorescence with excitation at 400 nm and emission at 445 nm and 520 nM.\nCalculate % phosphorylation as follows:\nCalculate % inhibition as follows:\nC100%=average coumarin emission signal, 100% phosphorylation control;\nC0%=average coumarin emission signal, 0% phosphorylation control;\nF100%=average fluorescein emission signal, 100% phosphorylation control; […]"}, "[2]": {"tested_on": "A375 human melanoma xenograft", "test": "Study of efficiency in human melanoma xenograft model", "type": "in vivo, NMRI nude female mice", "conditions": "for T/C / Vavg (average tumor volume): after 21 days of treatment", "procedure": "Study of efficiency in human melanoma xenograft model. The study was carried out in ProQinase GmbH Freiburg, Breisacher Str. 117, D-79106 Freiburg, GERMANY.\nA375 human melanoma cells were cultivated in vials with DMEM medium with addition of 10% FBS in a humid atmosphere containing 95% of air and 5% of CO2 at 37° C. Cancer cells were passaged to animals after an adaptation period. For that end the cells were collected using TrypLE Express (Invitrogen), washed and suspended in sterile PBS to the final concentration of 3×10^7 cells/mL. This cell suspension was injected subcutaneously (SC) in mice left flanks (3×10^6 cells or 100 μL per mouse).\nMeasurement of subcutaneously implanted tumors was carried out 2 times a week starting from the day of cells introduction. Tumor volume (mm^3) was determined by the equation: V=L×W^2/2,\nwhere L corresponds to maximum and W to minimum tumor diameter (mm). The measurements were carried out using a slide caliper.\nThe study included calculation of tumor growth inhibition values: T/C=Vexp/Vctrl×100%,\nVctrl=average tumor volume in the control group;\nVexp=average tumor volume in the experimental group.\nVini=initial tumor volume at the start of treatment;\nVfin=tumor volume at the end of treatment."}, "[3]": {"test": "Determination of thermodynamic solubility", "type": "physicochemical", "conditions": "for solubility at 24 h: 25 °C, thermodynamic from solid", "procedure": "Use additional quantities of the substances until the solution becomes turbid. Incubate vials with the solution for 24 h at 25° C. with mixing to achieve equilibrium between saturated solution and precipitate. Upon equilibration filter 200 μL of the solution (in duplicate) through a 96-well filter plate (Millipore) to separate the precipitate. Determine concentrations of the compounds in the filtrate by spectrophotometry using standard calibration curve. Carry out measurement of optical absorption spectrum of the substance and plot calibration curve at the selected wavelength (usually corresponding to the substance absorption maximum λmax). Calculate concentration of the substance in the filtrate (i.e., solubility) by the following equation: Solubility=(ODλmax filtrate−ODλmax blank)/Slope×1.67×Filtrate dilution,\nODλmax filtrate=absorbance of the filtrate:\nODλmax blank=absorbance of the blank solution without the substance;\nSlope=slope of the calibration curve;\n1.67=dilution factor for the filtrate in acetonitrile;\nFiltrate dilution=dilution factor for the filtrate in the buffer."}, "[4]": {"conditions": "single-dose oral, mice; cited from earlier work"}, "[5]": {"conditions": "cited from earlier work"}, "[6]": {"conditions": "0.3 mg/kg intragastrically daily"}, "[7]": {"conditions": "1.0 mg/kg intragastrically daily"}, "[8]": {"conditions": "3.0 mg/kg intragastrically daily"}, "[9]": {"conditions": "10.0 mg/kg intragastrically daily"}, "[10]": {"conditions": "4% dimethyl sulfoxide and 96% corn oil, oil or lipid, 4% dimethyl sulfoxide, 96% corn oil, read-out: Solubility in a mixture of 4% sulfoxide and 96% corn oil"}, "[11]": {"conditions": "dimethyl sulfoxide, organic solvent or mixture, read-out: Solubility in dimethyl sulfoxide"}, "[12]": {"conditions": "water, water, read-out: Solubility in water"}}, "note": "Read-outs that look alike come from different tables or passages of the source."}
{"smiles": "Cc1c(=O)n(C)c(Nc2ccc(I)cc2F)c2c(=O)n(C3CC3)c(=O)n(-c3cccc(NC(=O)C4CC4)c3)c12", "note": "[Compound of formula 1, N-{3-[3-cyclopropyl-5-(2-fluoro-4-iodophenylamino)-6,8-dimethyl-2,4,7-trioxo-3,4,6,7-tetrahydro-2H-pyrido[4,3-d]pyrimidin-1-yl]-phenyl}-cyclopropanecarboxamide dimethyl sulfoxide solvate]", "values": [{"measurement": "Animal body weight loss as compared to the treatment start date", "setting": "[1]; 10 mg/kg, throughout the study", "result": "not more than 20%"}, {"measurement": "Animal deaths", "setting": "[1]; any of the doses studied (up to 10 mg/kg)", "result": "did not cause animal deaths"}, {"measurement": "IC50", "setting": "MEK1", "result": 8.02, "unit": "nM"}, {"measurement": "Effect on tumor growth", "setting": "[2]; 0.3 mg/kg intragastric", "result": "no effect on tumor growth"}, {"measurement": "T/C", "setting": "[2]; [6]", "result": 39.5, "unit": "%"}, {"measurement": "Vavg (average tumor volume)", "setting": "[2]; [6]", "result": 834.3, "unit": "mm^3"}, {"measurement": "Animals with tumor regression", "setting": "[2]; 1 mg/kg", "result": "three of eight"}, {"measurement": "T/C", "setting": "[2]; [7]", "result": 6.7, "unit": "%"}, {"measurement": "Vavg (average tumor volume)", "setting": "[2]; [7]", "result": 140.5, "unit": "mm^3"}, {"measurement": "Animals with tumor regression", "setting": "[2]; 3 mg/kg", "result": "7/8"}, {"measurement": "T/C", "setting": "[2]; [8]", "result": 4.0, "unit": "%"}, {"measurement": "Vavg (average tumor volume)", "setting": "[2]; [8]", "result": 84.5, "unit": "mm^3"}, {"measurement": "Animals with tumor regression", "setting": "[2]; 10 mg/kg", "result": "8/8"}, {"measurement": "T/C", "setting": "[2]; [9]", "result": 1.2, "unit": "%"}, {"measurement": "Vavg (average tumor volume)", "setting": "[2]; [9]", "result": 26.1, "unit": "mm^3"}, {"measurement": "solubility at 24 h", "setting": "[3]; [10]", "result": 7000, "unit": "µg/mL"}, {"measurement": "solubility at 24 h", "setting": "[3]; [11]", "result": 47000, "unit": "µg/mL"}, {"measurement": "Solubility in dimethyl sulfoxide relative to Trametinib", "setting": "[3]; dimethyl sulfoxide, ratio to Trametinib", "result": "more than 2 times"}, {"measurement": "solubility at 24 h", "setting": "[3]; [12]", "result": "< 1000", "unit": "µg/mL"}]}
{"smiles": "CC(=O)Nc1cccc(-n2c(=O)n(C3CC3)c(=O)c3c(Nc4ccc(I)cc4F)n(C)c(=O)c(C)c32)c1", "note": "[Mekinist, Trametinib dimethyl sulfoxide, reference compound]", "values": [{"measurement": "Animal deaths", "setting": "[1]; 3 mg/kg intragastric for 9 days", "result": "two"}, {"measurement": "Animals with tumor regression", "setting": "[2]; 3 mg/kg intragastric", "result": 100, "unit": "% animals"}, {"measurement": "T/C", "setting": "[2]; [8]", "result": 1.0, "unit": "%"}, {"measurement": "Vavg (average tumor volume)", "setting": "[2]; [8]", "result": 21.1, "unit": "mm^3"}, {"measurement": "LD50", "setting": "[4]", "result": "> 2000", "unit": "mg/kg"}]}
{"smiles": "CC(=O)Nc1cccc(-n2c(=O)n(C3CC3)c(=O)c3c(Nc4ccc(I)cc4F)n(C)c(=O)c(C)c32)c1", "note": "[Trametinib, reference compound]", "values": [{"measurement": "solubility at 24 h", "setting": "[3]; [10]", "result": 3000, "unit": "µg/mL"}, {"measurement": "solubility at 24 h", "setting": "[3]; [11]", "result": 22000, "unit": "µg/mL"}, {"measurement": "solubility at 24 h", "setting": "[3]; [12]", "result": "< 1000", "unit": "µg/mL"}, {"measurement": "Solubility in aqueous media", "setting": "[5]; between pH=2 and pH=8", "result": "practically insoluble"}, {"measurement": "Solubility in organic solvents", "setting": "[5]; organic solvents including highly polar ones", "result": "very slightly soluble"}]}
